Assay results taken from US4772633A, “6-pyridyl- and 6-phenyl-3-phenyl-1-hexenes and -1-hexynes, composition containing them, and insecticidal and acaricidal method of using them” (Sumitomo Chemical Company, Limited, priority 1986, dated 1988).
Where two headings read alike, the source gives them in different places.

Legend:
Type in all cases: in vivo
[1] = tested on: brown rice planthoppers (Nilaparavata lugens); assay: Test Example 7: mortality and residual effect on brown rice planthoppers on sprayed potted rice plants; details: Oryza sativa, 24 h
Experimental: The emulsifiable concentrates of the following compounds and control compounds obtained according to Formulation example 2 were each diluted with water one thousand times (corresponding to 100 ppm) and each of thus prepared solutions was sprayed at the rate of 20 ml/2 pots to the rice plant seedlings planted in Wagner pots having a surface area of one ten thousandth are. After air-drying, the threated plants were covered with the iron wire cages, and about 15 adults of brown rice planthoppers (Nilaparavata lugens) were liberated thereto. Further, about 15 adults thereof were also liberated thereto 4 days after the application to examine the residual effects. Twenty four hours after each liberation, the dead and alive adults were examined to calculate the mortality.

[2] = tested on: carmine spider mite (Tetranychus cinnabarinus); assay: Test Example 8: degree of damage of kidney bean plant by carmine spider mite; parameters: key: -: No damage is observed.; +: Slight damage is observed.; ++: The same damage as in the untreated plot is observed; details: 500 ppm, sprayed 15 ml/pot plus 2 ml to soil; after 8 days; 25° C.
Experimental: The female adults of carmine spider mite (Tetranychus cinnabarinus) were put at a rate of 10 adults/leaf on the leaves of potted kidney bean (at the primordial leaf stage) which had elapsed 7 days after sowing, and placed in a constant-temperature room kept at 25° C. After 6 days, the 200-fold aqueous dilute solutions (corresponding to 500 ppm), prepared from the emulsifiable concentrates of the following present compounds and control compounds prepared according to Formulation example 2, were each sprayed at a rate of 15 ml/pot on a turn table. At the same time, the soil in the pot was treated with 2 ml of each aqueous solution. After 8 days, the degree of damage of the plant by the mite was examined.
-: No damage is observed.
+: Slight damage is observed.
++: The same damage as in the untreated plot is observed.

[3] = tested on: common mosquito (Culex pipiens pallens); assay: Test Example 1: mortality of larvae and inhibition of emergence of common mosquito; details: for Inhibitory ratio of emergence: 3.5 ppm, counted when all mosquitoes of no treatment group had emerged; for mortality at 3.5 ppm: Culex pipiens, 24 h, last instar larvae, after one day
Experimental: The emulsifiable concentrates of the following present compounds obtained according to Formulation example 2 were each diluted with water so as to obtain respective aqueous solutions containing 3.5 ppm of said compounds, respectively. One hundred ml of thus diluted aqueous solutions were poured into respective polyethylene cups of 180 ml volume, and 20 of the last instar larvae of common mosquito (Culex pipiens pallens) were liberated thereto. After one day, the dead or alive of the larvae were examined. Thereafter, the feed was added to respective cups and the number of emerged mosquitoes of the respective cups was counted when all the mosquitoes of no treatment group had […] to calculate the inhibitory ratios of the emergence. The mortality and the inhibitory ratio of the emergence are shown according to the following three criteria: mortality: A; 90% or more, […] inhibitory: A; 90% or more, ratio of emergence B; less than 90% to 80% C; less than 80%.

[4] = read-out: Mortality (%) liberated 4 days after application
[5] = read-out: Mortality (%) liberated just after air-drying

SMILES: C=CC(C)(CCCc1cccc(Oc2ccccc2)c1)c1ccc(OCC)cc1 (centres unmarked) [(1), 3-(4-ethoxyphenyl)-3-methyl-6-(3-phenoxyphenyl)-1-hexene]
- mortality at 100 ppm [1, 4]: 100%
- mortality at 100 ppm [1, 5]: 100%
- Degree of damage [2]: - ~ +
- Inhibitory ratio of emergence [3]: A (90% or more)
- mortality at 3.5 ppm [3]: > 90%

SMILES: C=CC(C)(CCCc1ccc(F)c(Oc2ccccc2)c1)c1ccc(OCC)cc1 (centres unmarked) [(2), 3-(4-Ethoxyphenyl)-3-methyl-6-(3-phenoxy-4-fluorophenyl)-1-hexene]
- mortality at 100 ppm [1, 4]: 100%
- mortality at 100 ppm [1, 5]: 100%
- Degree of damage [2]: -
- Inhibitory ratio of emergence [3]: A (90% or more)
- mortality at 3.5 ppm [3]: > 90%

SMILES: C#CC(C)(CCCc1ccc(F)c(Oc2ccccc2)c1)c1ccc(OC(F)F)cc1 (centres unmarked) [(6), 3-(4-Difluoromethoxyphenyl)-3-methyl-6-(3-phenoxy-4-fluorophenyl)-1-hexyne]
- Degree of damage [2]: -
- Inhibitory ratio of emergence [3]: A (90% or more)
- mortality at 3.5 ppm [3]: > 90%

SMILES: C#CC(C)(CCCc1cccc(Oc2ccccc2)c1)c1ccc(OCC=C)cc1 (centres unmarked) [(7), 3-(4-allyloxyphenyl)-3-methyl-6-(3-phenoxyphenyl)-1-hexyne]
- mortality at 100 ppm [1, 4]: 93%
- mortality at 100 ppm [1, 5]: 100%
- Degree of damage [2]: -
- Inhibitory ratio of emergence [3]: A (90% or more)
- mortality at 3.5 ppm [3]: 10 to 90%

SMILES: C#CC(C)(CCCc1ccc(F)c(Oc2ccccc2)c1)c1ccc(OCC=C)cc1 (centres unmarked) [(8), 3-(4-Allyloxyphenyl)-3-methyl-6-(3-phenoxy-4-fluorophenyl)-1-hexyne]
- Degree of damage [2]: -
- Inhibitory ratio of emergence [3]: A (90% or more)
- mortality at 3.5 ppm [3]: > 90%

SMILES: C#CC(C)(CCCc1ccc(F)c(Oc2ccccc2)c1)c1ccc(Cl)cc1 (centres unmarked) [(10), 3-(4-Chlorophenyl)-3-methyl-6-(3-phenoxy-4-fluorophenyl)-1-hexyne]
- Degree of damage [2]: -
- Inhibitory ratio of emergence [3]: A (90% or more)
- mortality at 3.5 ppm [3]: > 90%

SMILES: C#CC(C)(CCCc1ccc(F)c(Oc2ccccc2)c1)c1ccc(OCC)c(Cl)c1 (centres unmarked) [(11), 3-(3-Chloro-4-ethoxyphenyl)-3-methyl-6-(3-phenoxy-4-fluorophenyl)-1-hexyne]
- Degree of damage [2]: -
- Inhibitory ratio of emergence [3]: A (90% or more)
- mortality at 3.5 ppm [3]: > 90%

SMILES: C#CC(C)(CCCc1cccc(Oc2ccccc2)c1)c1ccc(OCC)c(Cl)c1 (centres unmarked) [(16), 3-(3-Chloro-4-ethoxyphenyl)-3-methyl-6-(3-phenoxyphenyl)-1-hexyne]
- Degree of damage [2]: -
- Inhibitory ratio of emergence [3]: A (90% or more)
- mortality at 3.5 ppm [3]: 10 to 90%

SMILES: C#CC(C)(CCCc1cccc(Oc2ccccc2)c1)c1ccc(OC(F)F)cc1 (centres unmarked) [(17), 3-(4-difluoromethoxyphenyl)-3-methyl-6-(3-phenoxyphenyl)-1-hexyne]
- Degree of damage [2]: -
- Inhibitory ratio of emergence [3]: A (90% or more)
- mortality at 3.5 ppm [3]: > 90%

SMILES: C#CC(C)(CCCc1cccc(Oc2ccccc2)n1)c1ccc(OCC)cc1 (centres unmarked) [(18), 3-(4-ethoxyphenyl)-3-methyl-6-(6-phenoxypyridin-2-yl)-1-hexyne]
- Degree of damage [2]: - ~ +
- Inhibitory ratio of emergence [3]: A (90% or more)
- mortality at 3.5 ppm [3]: > 90%

SMILES: C#CC(C)(CCCc1ccc(F)c(Oc2ccccc2)n1)c1ccc(OCC)cc1 (centres unmarked) [(20)]
- Degree of damage [2]: - ~ +
- Inhibitory ratio of emergence [3]: A (90% or more)
- mortality at 3.5 ppm [3]: > 90%

SMILES: C#CC(C)(CCCc1cccc(Oc2ccccc2)c1)c1ccc(Cl)cc1 (centres unmarked) [(25), 3-(4-Chlorophenyl)-3-methyl-6-(3-phenoxyphenyl)-1-hexyne]
- Degree of damage [2]: -
- Inhibitory ratio of emergence [3]: A (90% or more)
- mortality at 3.5 ppm [3]: > 90%

SMILES: C#CC(CC)(CCCc1cccc(Oc2ccccc2)c1)c1ccc(OCC)cc1 (centres unmarked) [(32), 3-(4-Ethoxyphenyl)-3-ethyl-6-(3-phenoxyphenyl)-1-hexyne]
- Inhibitory ratio of emergence [3]: A (90% or more)
- mortality at 3.5 ppm [3]: > 90%

SMILES: C#CC(C)(CCCc1ccc(F)c(Oc2ccc(C)cc2)c1)c1ccc(OCC)cc1 (centres unmarked) [(33), 3-(4-Ethoxyphenyl)-3-methyl-6-{3-(4-methylphenoxy)-4-fluorophenyl}-1-hexyne]
- Inhibitory ratio of emergence [3]: A (90% or more)
- mortality at 3.5 ppm [3]: > 90%

SMILES: C#CC(C)(CCCc1ccc(F)c(Oc2ccc(Cl)cc2)c1)c1ccc(OCC)cc1 (centres unmarked) [(34), 3-(4-Ethoxyphenyl)-3-methyl-6-{3-(4-chlorophenoxy)-4-fluorophenyl}-1-hexyne]
- Inhibitory ratio of emergence [3]: A (90% or more)
- mortality at 3.5 ppm [3]: > 90%

SMILES: C#CC(C)(CCCc1cccc(Oc2ccccc2)c1)c1ccc(F)cc1 (centres unmarked) [(35), 3-(4-Fluorophenyl)-3-methyl-6-(3-phenoxyphenyl)-1-hexyne]
- Inhibitory ratio of emergence [3]: A (90% or more)
- mortality at 3.5 ppm [3]: > 90%

SMILES: C#CC(C)(CCCc1ccc(F)c(Oc2ccccc2)c1)c1ccc(Cl)c(Cl)c1 (centres unmarked) [(36), 3-(3,4-Dichlorophenyl)-3-methyl-6-(3-phenoxy-4-fluorophenyl)-1-hexyne]
- Inhibitory ratio of emergence [3]: A (90% or more)
- mortality at 3.5 ppm [3]: 10 to 90%

SMILES: C#CC(C)(CCCc1ccc(F)c(Oc2ccc(F)cc2)c1)c1ccc(OCC)cc1 (centres unmarked) [(38), 3-(4-Ethoxyphenyl)-3-methyl-6-{3-(4-fluorophenoxy)-4-fluorophenyl}-1-hexyne]
- Inhibitory ratio of emergence [3]: A (90% or more)
- mortality at 3.5 ppm [3]: > 90%

SMILES: C#CC(C)(CCCc1ccc(F)c(Oc2ccccc2)c1)c1ccc(CC)cc1 (centres unmarked) [(39), 3-(4-Ethylphenyl)-3-methyl-6-(3-phenoxy-4-fluorophenyl)-1-hexyne]
- Degree of damage [2]: - ~ +
- Inhibitory ratio of emergence [3]: A (90% or more)
- mortality at 3.5 ppm [3]: > 90%

SMILES: C#CC(C)(CCCc1ccc(F)c(Oc2ccccc2)c1)c1ccc(OCC=C)c(Cl)c1 (centres unmarked) [(40)]
- Inhibitory ratio of emergence [3]: A (90% or more)
- mortality at 3.5 ppm [3]: 10 to 90%

SMILES: C#CC(CC)(CCCc1ccc(F)c(Oc2ccccc2)c1)c1ccc(Cl)cc1 (centres unmarked) [(41), 3-(4-Chlorophenyl)-3-ethyl-6-(3-phenoxy-4-fluorophenyl)-1-hexyne]
- Inhibitory ratio of emergence [3]: A (90% or more)
- mortality at 3.5 ppm [3]: > 90%

SMILES: C#CC(CCCC)(CCCc1ccc(F)c(Oc2ccccc2)c1)c1ccc(OCC)cc1 (centres unmarked) [(42), 3-(4-Ethoxyphenyl)-3-n-butyl-6-(3-phenoxy-4-fluorophenyl)-1-hexyne]
- Inhibitory ratio of emergence [3]: A (90% or more)
- mortality at 3.5 ppm [3]: 10 to 90%

SMILES: C#CC(CCCc1ccc(F)c(Oc2ccccc2)c1)c1ccc(OCC)cc1 (centres unmarked) [(43), 3-(4-Ethoxyphenyl)-6-(3-phenoxy-4-fluorophenyl)-1-hexyne]
- Degree of damage [2]: - ~ +
- Inhibitory ratio of emergence [3]: A (90% or more)
- mortality at 3.5 ppm [3]: > 90%

SMILES: C#CC(C)(CCCc1cccc(Oc2ccccc2)n1)c1ccc(OC)cc1 (centres unmarked) [(44), 3-(4-methoxyphenyl)-3-methyl-6-(6-phenoxypyridin-2-yl)-1-hexyne]
- Inhibitory ratio of emergence [3]: A (90% or more)
- mortality at 3.5 ppm [3]: 10 to 90%

SMILES: CCOc1ccc(C(C)(C)COCc2cccc(Oc3ccccc3)c2)cc1 [(B), reference compound]
- mortality at 100 ppm [1, 4]: 65%
- mortality at 100 ppm [1, 5]: 100%
- Degree of damage [2]: + ~ ++

SMILES: CCC(C)c1ccccc1OC(=O)NC (centres unmarked) [(C), BPMC, reference compound]
- mortality at 100 ppm [1, 4]: 6%
- mortality at 100 ppm [1, 5]: 100%

SMILES: Cc1cc(Cl)ccc1N=CN(C)C [(E), Chlordimeform, reference compound]
- Degree of damage [2]: - ~ +
